Reference: US8673908B2, “Kynurenine production inhibitor” (Kyowa Hakko Kirin Co., Ltd., priority 2008, dated 2014)

The compounds below were run on kynurenine production in IFN-γ-treated KATO-III cells (assay: Inhibitory activity on kynurenine production (Test Example 1)). Details: Homo sapiens, IFN-γ treatment, culture for 96 hours, read-out: IC50 value, inhibition of kynurenine production.
Assay type: cell-based
In short: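 Read-out is absorbance at 480 nm of medium treated with trichloroacetic acid, then p-dimethylaminobenzaldehyde, to quantify kynurenine. DMSO-only wells with and without IFN-γ serve as references. Cells were KATO-III, 2,000 per well, 96 h at 37 °C/5% CO2 with compound (DMSO ≤0.1%) and IFN-γ at 31.25 ng/mL in the added suspension.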

IC50, < 1000 nM:
COc1ccccc1S(=O)(=O)Nc1nc2ccccc2nc1OC(c1cccnc1)C(F)(F)F (stereo not shown) [Compound 158, 2-methoxy-N-{3-[2,2,2-trifluoro-1-(pyridin-3-yl)ethoxy]-quinoxalin-2-yl}benzenesulfonamide]
O=S(=O)(Nc1nc2ccccc2nc1OCCCc1cccnc1)c1cccc(Cl)c1Cl [Compound 159, 2,3-dichloro-N-{3-[3-(pyridin-3-yl)propoxy]quinoxalin-2-yl}benzenesulfonamide]
O=S(=O)(Nc1nc2ccccc2nc1OC(c1cccnc1)C(F)(F)F)c1ccsc1 (stereo not shown) [Compound 161, N-{3-[2,2,2-trifluoro-1-(pyridin-3-yl)ethoxy]quinoxalin-2-yl}thiophene-3-sulfonamide]
Cc1cc(S(=O)(=O)Nc2nc3ccccc3nc2OC(c2cccnc2)C(F)(F)F)c(C)s1 (stereo not shown) [Compound 162, 2,5-dimethyl-N-{3-[2,2,2-trifluoro-1-(pyridin-3-yl)ethoxy]-quinoxalin-2-yl}thiophene-3-sulfonamide]
Cc1nc(C)c(S(=O)(=O)Nc2nc3ccccc3nc2OC(c2cccnc2)C(F)(F)F)s1 (stereo not shown) [Compound 163, 2,4-dimethyl-N-{3-[2,2,2-trifluoro-1-(pyridin-3-yl)ethoxy]-quinoxalin-2-yl}thiazole-5-sulfonamide]
O=S(=O)(Nc1nc2ccccc2nc1OC(c1cccnc1)C(F)(F)F)c1cc2ccccc2s1 (stereo not shown) [Compound 164, N-{3-[2,2,2-trifluoro-1-(pyridin-3-yl)ethoxy]quinoxalin-2-yl}benzo[b]thiophene-2-sulfonamide]
CN1CCOc2cc(S(=O)(=O)Nc3nc4ccccc4nc3OC(c3cccnc3)C(F)(F)F)ccc21 (stereo not shown) [Compound 165, 4-methyl-N-{3-[2,2,2-trifluoro-1-(pyridin-3-yl)ethoxy]-quinoxalin-2-yl}-3,4-dihydro-2H-benzo[b][1,4]oxazine-7-sulfonamide]
CC(C)(COc1nc2ccccc2nc1NS(=O)(=O)c1ccccc1Cl)c1cccnc1 [Compound 167, 2-chloro-N-{3-[2-methyl-2-(pyridin-3-yl)propoxy]quinoxalin-2-yl}benzenesulfonamide]
CC(C)S(=O)(=O)Nc1nc2ccccc2nc1OC(c1cccnc1)C(F)(F)F (stereo not shown) [Compound 168, N-{3-[2,2,2-trifluoro-1-(pyridin-3-yl)ethoxy]quinoxalin-2-yl}propane-2-sulfonamide]
O=S(=O)(Nc1nc2ccccc2nc1OC(c1cccnc1)C(F)(F)F)C1CCCC1 (stereo not shown) [Compound 169, N-{3-[2,2,2-trifluoro-1-(pyridin-3-yl)ethoxy]quinoxalin-2-yl}cyclopentanesulfonamide]
Cc1nn(C)c(Cl)c1S(=O)(=O)Nc1nc2ccccc2nc1OC(c1cncn1C)C(F)(F)F (stereo not shown) [Compound 170, 5-chloro-1,3-dimethyl-N-{3-[2,2,2-trifluoro-1-(1-methyl-1H-imidazol-5-yl)ethoxy]quinoxalin-2-yl}-1H-pyrazole-4-sulfonamide]
Cc1noc(C)c1S(=O)(=O)Nc1nc2ccccc2nc1OC(c1cncn1C)C(F)(F)F (stereo not shown) [Compound 171, 3,5-dimethyl-N-{3-[2,2,2-trifluoro-1-(1-methyl-1H-imidazol-5-yl)ethoxy]quinoxalin-2-yl}isoxazole-4-sulfonamide]
O=S(=O)(Nc1nc2ccccc2nc1OC(CCc1cccnc1)C(F)(F)F)c1ccccc1Cl (stereo not shown) [Compound 172, 2-chloro-N-{3-[1,1,1-trifluoro-4-(pyridin-3-yl)butan-2-yloxy]quinoxalin-2-yl}benzenesulfonamide]
O=S(=O)(Cc1ccccc1Cl)Nc1nc2ccccc2nc1OC(c1cccnc1)C(F)(F)F (stereo not shown) [Compound 173, 1-(2-chlorophenyl)-N-{3-[2,2,2-trifluoro-1-(pyridin-3-yl)-ethoxy]quinoxalin-2-yl}methanesulfonamide]
CN(C)S(=O)(=O)Nc1nc2ccccc2nc1OC(c1cccnc1)C(F)(F)F (stereo not shown) [Compound 174, N-{3-[2,2,2-trifluoro-1-(pyridin-3-yl)ethoxy]quinoxalin-2-yl}-N′,N′-dimethyl-sulfuric diamide]
Cn1cncc1C(Oc1nc2ccccc2nc1NS(=O)(=O)c1ccccc1Cl)C(F)(F)F (stereo not shown) [Compound 175, 2-chloro-N-{3-[2,2,2-trifluoro-1-(1-methyl-1H-imidazol-5-yl)ethoxy]quinoxalin-2-yl}benzenesulfonamide]
CC(COc1nc2ccccc2nc1NS(=O)(=O)c1ccccc1Cl)Cc1cccnc1 (stereo not shown) [Compound 176, 2-chloro-N-{3-[2-methyl-3-(pyridin-3-yl)propoxy]quinoxalin-2-yl}benzenesulfonamide]
CC(CCOc1nc2ccccc2nc1NS(=O)(=O)c1ccccc1Cl)c1cccnc1 (stereo not shown) [Compound 177, 2-chloro-N-{3-[3-(pyridin-3-yl)butoxy]quinoxalin-2-yl}-benzenesulfonamide]
Cc1noc(C)c1S(=O)(=O)Nc1nc2ccccc2nc1OC(c1cncs1)C(F)(F)F (stereo not shown) [Compound 178, 3,5-dimethyl-N-{3-[2,2,2-trifluoro-1-(thiazol-5-yl)ethoxy]-quinoxalin-2-yl}isoxazole-4-sulfonamide]
CC(C)CS(=O)(=O)Nc1nc2ccccc2nc1OC(c1cccnc1)C(F)(F)F (stereo not shown) [Compound 180, 2-methyl-N-{3-[2,2,2-trifluoro-1-(pyridin-3-yl)ethoxy]-quinoxalin-2-yl}propane-1-sulfonamide]
O=S(=O)(Nc1nc2ccccc2nc1OC(c1cccnc1)C(F)(F)F)c1cccc(Cl)c1 (stereo not shown) [Compound 181, 3-chloro-N-{3-[2,2,2-trifluoro-1-(pyridin-3-yl)ethoxy]-quinoxalin-2-yl}benzenesulfonamide]
O=S(=O)(Nc1nc2ccccc2nc1OC(c1cccnc1)C(F)(F)F)c1ccc(Cl)cc1 (stereo not shown) [Compound 182, 4-chloro-N-{3-[2,2,2-trifluoro-1-(pyridin-3-yl)ethoxy]-quinoxalin-2-yl}benzenesulfonamide]
O=S(=O)(Nc1nc2ccccc2nc1OC(c1cccnc1)C(F)(F)F)C1CCCCC1 (stereo not shown) [Compound 183, N-{3-[2,2,2-trifluoro-1-(pyridin-3-yl)ethoxy]quinoxalin-2-yl}cyclohexanesulfonamide]
Cc1nn(C)c(Cl)c1S(=O)(=O)Nc1nc2ccccc2nc1OC(c1ccccc1)C(F)(F)F (stereo not shown) [Compound 184, 5-chloro-1,3-dimethyl-N-[3-(2,2,2-trifluoro-1-phenyl-ethoxy)quinoxalin-2-yl]-1H-pyrazole-4-sulfonamide]
Cc1noc(C)c1S(=O)(=O)Nc1nc2ccccc2nc1OC(c1ccccc1)C(F)(F)F (stereo not shown) [Compound 185, 3,5-dimethyl-N-[3-(2,2,2-trifluoro-1-phenylethoxy)-quinoxalin-2-yl]isoxazole-4-sulfonamide]
Cc1nn(C)c(Cl)c1S(=O)(=O)Nc1nc2ccccc2nc1OC(c1cncs1)C(F)(F)F (stereo not shown) [Compound 186, 5-chloro-1,3-dimethyl-N-{3-[2,2,2-trifluoro-1-(thiazol-5-yl)ethoxy]quinoxalin-2-yl}-1H-pyrazole-4-sulfonamide]
CCC(C)S(=O)(=O)Nc1nc2ccccc2nc1OC(c1cccnc1)C(F)(F)F (stereo not shown) [Compound 187, N-{3-[2,2,2-trifluoro-1-(pyridin-3-yl)ethoxy]quinoxalin-2-yl}butane-2-sulfonamide]
O=S(=O)(Nc1nc2ccccc2nc1OC(c1cccnc1)C(F)(F)F)N1CCOCC1 (stereo not shown) [Compound 188, N-{3-[2,2,2-trifluoro-1-(pyridin-3-yl)ethoxy]quinoxalin-2-yl}morpholine-4-sulfonamide]
O=S(=O)(Nc1nc2ccccc2nc1OC(c1cccnc1)C(F)(F)F)NC1CC1 (stereo not shown) [Compound 189, N-cyclopropyl-N′-{3-[2,2,2-trifluoro-1-(pyridin-3-yl)-ethoxy]quinoxalin-2-yl}sulfuric diamide]
CCS(=O)(=O)Nc1nc2ccccc2nc1OC(c1cccnc1)C(F)(F)F (stereo not shown) [Compound 190, N-{3-[2,2,2-trifluoro-1-(pyridin-3-yl)ethoxy]quinoxalin-2-yl}ethanesulfonamide]
CCCCS(=O)(=O)Nc1nc2ccccc2nc1OC(c1cccnc1)C(F)(F)F (stereo not shown) [Compound 191, N-{3-[2,2,2-trifluoro-1-(pyridin-3-yl)ethoxy]quinoxalin-2-yl}butane-1-sulfonamide]
CCCS(=O)(=O)Nc1nc2ccccc2nc1OC(c1ccc(C)nc1)C(F)(F)F (stereo not shown) [Compound 192, N-{3-[2,2,2-trifluoro-1-(6-methylpyridin-3-yl)ethoxy]-quinoxalin-2-yl}propane-1-sulfonamide]
O=S(=O)(CC(F)(F)F)Nc1nc2ccccc2nc1OC(c1cccnc1)C(F)(F)F (stereo not shown) [Compound 193, 2,2,2-trifluoro-N-{3-[2,2,2-trifluoro-1-(pyridin-3-yl)-ethoxy]quinoxalin-2-yl}ethanesulfonamide]
CCCNS(=O)(=O)Nc1nc2ccccc2nc1OC(c1cccnc1)C(F)(F)F (stereo not shown) [Compound 194, N-propyl-N′-{3-[2,2,2-trifluoro-1-(pyridin-3-yl)ethoxy]-quinoxalin-2-yl}sulfuric diamide]
CCNS(=O)(=O)Nc1nc2ccccc2nc1OC(c1cccnc1)C(F)(F)F (stereo not shown) [Compound 195, N-ethyl-N′-{3-[2,2,2-trifluoro-1-(pyridin-3-yl)ethoxy]-quinoxalin-2-yl}sulfuric diamide]
CCCS(=O)(=O)Nc1nc2ccccc2nc1OC(c1cnc(Cl)s1)C(F)(F)F (stereo not shown) [Compound 196, N-{3-[1-(2-chlorothiazol-5-yl)-2,2,2-trifluoroethoxy]-quinoxalin-2-yl}propane-1-sulfonamide]
CCCS(=O)(=O)Nc1nc2ccccc2nc1OC(c1ccc(CN(C)C)cc1)C(F)(F)F (stereo not shown) [Compound 197, N-{3-[1-(4-((dimethylamino)methyl)phenyl)-2,2,2-trifluoroethoxy]quinoxalin-2-yl}propane-1-sulfonamide]
